The text below walks through data of patent publication US4980349A, “Sulphonamides derived from diarylmethanes, the processes for preparing them and pharmaceutical compositions containing them” (SANOFI, priority 1986, dated 1990).

Like-named read-outs stand apart in the source and are kept apart here.

Assay [1] relates to rat hind foot carragheenin-induced oedema. The assay is described as follows: Carragheenin-induced oedema test. Format: in vivo. As to conditions: 3 h, first experiment, Table X, read-out: percentage inhibition of the inflammation; for change in vivo at 25 mg/kg: 25 mg/kg oral; for change in vivo at 50 mg/kg: 50 mg/kg oral; for change in vivo at 100 mg/kg: 100 mg/kg oral. The procedure: In this test, 10 rats are used per test compound of the invention. Control batches of 10 rats also receive either the comparative compound (ketoprofen) or exclusively an NaCl solution.
The compounds of the invention are administered orally (stomach tube) one hour before the injection of carragheenin.
The carragheenin is suspended at a concentration of 1% in a 0.9% isotonic sodium chloride solution. The volume injected into the rat's foot is 0.20 ml.
The volume of the foot is measured before the injection and 3 hours later. The antagonistic effect of the products towards carragheenin is reflected in the inhibition of the volume of the oedema compared with control rats. The latter receive only isotonic NaCl solution under identical conditions.

The subject of assay [2] is pain threshold of brewer's yeast inflamed rat hind foot. The assay is described as follows: Randall and Sellitto's test (analgesic activity). Format: in vivo. As to conditions: first experiment, Table XII, read-out: percentage increase in the mean pain threshold; for change in vivo at 25 mg/kg: 25 mg/kg oral; for change in vivo at 50 mg/kg: 50 mg/kg oral; for change in vivo at 100 mg/kg: 100 mg/kg oral. Here is the method:
Inflammation increases the sensitivity to pain, in particular to pressure, and analgesics raise the threshold of the sensitivity.
The inflammation is obtained by injecting 0.1 ml of a 20% strength aqueous suspension of brewer's yeast under the plantar aponeurosis of one of the hind feet. […] The pain threshold is assessed in terms of the force necessary and sufficient to initiate a characteristic reaction of withdrawing the foot.
The sensitivity to pain of the inflamed foot reaches a plateau 4 hours after the injection of the brewer's yeast, and then remains stable until the 6th hour. The pain threshold of the inflamed foot in control rats weighing 140 g is reached for pressures of 50 to 60 g, whereas it is around 160 g for the intact foot.
The action of the substance administered orally to series of 10 rats is expressed in terms of the percentage increase in the mean pain threshold, compared with that measured in the rats of a control series of 10 animals which have not received a compound of the invention.
The test products are administered orally (stomach tube) one hour before the injection of brewer's yeast.
The comparative compound used is ketoprofen.

Assay [3] deals with rat hind foot kaolin-induced oedema. Kind of assay: Kaolin-induced arthritis test, first experiment (decrease in inflammation, foot volume). The format is in vivo. As to conditions: 1 h before kaolin, Table IX, read-out: percentage decrease in the inflammation; for change in vivo at 25 mg/kg: 25 mg/kg oral; for change in vivo at 50 mg/kg: 50 mg/kg oral; for change in vivo at 100 mg/kg: 100 mg/kg oral. The procedure:
The […] of 0.05 ml of a sterile 10% strength suspension of kaolin into the metatarsal flexor sheath of the hind foot of a rat initially induces an oedematous reaction. An inflammatory arthritis then forms.
The early oedematous reaction appears from the first hour, and reaches its maximum between the fourth hour and the sixth hour. This is the manifestation of interest. The assessment of the volume of the foot enables the action of substances on the oedematous reaction to be studied. The measurements are carried out using a Giono and Chevilard plethysmometer.
The test products are administered orally (stomach tube) one hour before the injection of the kaolin.
The results are expressed as a percentage decrease in the inflammation in the treated animals compared with a control series of animals.
The batches are of 10 animals per dose and 10 control animals.
The figures shown represent the mean of 10 animals.

The subject of assay [4] is biosynthesis of leukotrienes B4 (LTB4), human polymorphonuclear leukocytes. The assay is described as follows: Biosynthesis of LTB4, isomers and oxidized metabolites in human polymorphonuclear leukocytes. The format is cell-based. As to conditions: Leukocyte. The procedure: Polymorphonuclear leukocytes are isolated from human blood and used during the 6 hours following the withdrawal. The viability of the cells is checked by trypan blue exclusion.
5×10^6 cells are incubated for 10 minutes at 37° C. in the presence of the test product dissolved in DMSO, and are stimulated with ionophore A 23187 (Galbiochem, 10 μM) in PBS buffer at pH 7.4, Ca^2+ and Mg^2+ =1 μM.
100 ng of prostaglandin B2 (PGB2), dissolved in methanol, are added at the end of the reaction to act as an internal standard.
On centrifugation, the culture supernatant is withdrawn. The latter is retrieved under argon and stored at -80° C. until analysed by HPLC.
This analysis is carried out by injecting 250 μl onto a 5 μm ODS ultrasphere column (Beckmann), with a gradient of acetonitrile (20-80%) in water, at pH 7.4.
The amounts of the different products which absorb at 269 nm, i.e. leukotrienes B4 (LTB4), isomers of LTB4 and oxidized metabolites of LTB4, are estimated by comparison with the internal standard.
The test product is used at a concentration of 40 μM.
They are expressed either as a percentage inhibition, or as a percentage increase in the production of LTB4, isomers of LTB4 and oxidized metabolites of LTB4 (designated by +).
The experimental model is the same as that described in Section 2.1. Other products are tested by comparison with the compound of the invention no. 1574, used as a control.

The mark [5] stands for this setting: first experiment, read-out: Isomers of LTB4: percentage inhibition (+ : percentage increase in the production).
Where [6] appears, read: first experiment, read-out: LTB4: percentage inhibition (+ : percentage increase in the production).
Setting [7] is: first experiment, read-out: Oxidized metabolites of LTB4: percentage inhibition (+ : percentage increase in the production).
[8] abbreviates: second experiment, read-out: Percentage inhibition of LTB4 formation.

Regarding `O=C(c1ccccc1)c1ccccc1S(=O)(=O)NCCCN1CCOCC1` [Compound 1340], the change in vivo at 25 mg/kg in assay [1] is -5%; in assay [2], 10%; in assay [3], -10%. Further, the change in vivo at 50 mg/kg was -5% in assay [1], 20% in assay [2] and -25% in assay [3]. In addition, the change in vivo at 100 mg/kg in assay [1] was -10%; in assay [2], 49%; in assay [3], -45%.
For the compound `O=C(c1ccccc1)c1cc(Cl)ccc1S(=O)(=O)NCCN1CCOCC1` [Compound 1343], in assay [1], the change in vivo at 25 mg/kg was -7%, the change in vivo at 50 mg/kg was -8% and the change in vivo at 100 mg/kg is -8%. Further, in assay [2], the change in vivo at 25 mg/kg is 10%, the change in vivo at 50 mg/kg stood at 12% and the change in vivo at 100 mg/kg was 12%.
Consider `O=C(c1ccccc1)c1cc(Cl)ccc1S(=O)(=O)NCCCN1CCOCC1` [Compound 1344, 2-benzoyl-4-chloro-N-(3-morpholinopropyl)benzenesulphonamide], for which, in assay [2], the change in vivo at 25 mg/kg was 18%, the change in vivo at 50 mg/kg was 18% and the change in vivo at 100 mg/kg was determined as 25%. In assay [3], the change in vivo at 25 mg/kg was -10%, the change in vivo at 50 mg/kg is -15% and the change in vivo at 100 mg/kg is -18%.
On to `O=C(O)CNS(=O)(=O)c1ccc(Cl)cc1C(=O)c1ccccc1` [Compound 1565], for which, in assay [1], the change in vivo at 25 mg/kg is -18%, the change in vivo at 50 mg/kg was -22% and the change in vivo at 100 mg/kg is -49%. Further, in assay [2], the change in vivo at 25 mg/kg amounted to 18%, the change in vivo at 50 mg/kg was found to be 28% and the change in vivo at 100 mg/kg came to 42%. In assay [3], the change in vivo at 25 mg/kg was -15%, the change in vivo at 50 mg/kg is -20% and the change in vivo at 100 mg/kg is -45%.
Take `O=C(O)CCCNS(=O)(=O)c1ccc(Cl)cc1C(=O)c1ccccc1` [Compound 1567]: in assay [1], the change in vivo at 25 mg/kg was -8%, the change in vivo at 50 mg/kg is -10% and the change in vivo at 100 mg/kg is -10%. In addition, in assay [2], the change in vivo at 25 mg/kg is 12%, the change in vivo at 50 mg/kg was determined as 15% and the change in vivo at 100 mg/kg stood at 20%. For the same compound, in assay [3], the change in vivo at 25 mg/kg is -12%, the change in vivo at 50 mg/kg was -15% and the change in vivo at 100 mg/kg is -20%.
As for `O=C(O)CCCCCNS(=O)(=O)c1ccc([N+](=O)[O-])cc1C(=O)c1ccccc1` [Compound 1568], the change in vivo at 25 mg/kg in assay [1] is -15%; in assay [2] it was 18%; in assay [3], -15%. In addition, the change in vivo at 50 mg/kg was -20% in assay [1], 25% in assay [2] and -18% in assay [3]. Also, the change in vivo at 100 mg/kg was -35% in assay [1], 48% in assay [2] and -40% in assay [3].
On to `O=C(O)CCCCCNS(=O)(=O)c1ccc(Cl)cc1C(=O)c1ccccc1` [Compound 1569], for which, in assay [1], the change in vivo at 25 mg/kg was -30%, the change in vivo at 50 mg/kg was -35% and the change in vivo at 100 mg/kg was -50%. In assay [2], the change in vivo at 25 mg/kg amounted to 10%, the change in vivo at 50 mg/kg amounted to 15% and the change in vivo at 100 mg/kg stood at 25%. In assay [3], the change in vivo at 25 mg/kg is -28%, the change in vivo at 50 mg/kg was -30% and the change in vivo at 100 mg/kg was -45%.
In the case of `O=C(O)CCCCCCCCCCNS(=O)(=O)c1ccc([N+](=O)[O-])cc1C(=O)c1ccccc1` [Compound 1571], the inhibition at 40 µM in assay [4] (setting [5]) amounted to 53%; in assay [4] (setting [6]), 60%; in assay [4] (setting [7]) it was 70%. Moreover, the change in vivo at 25 mg/kg in assay [1] was -23%; in assay [2] it was 25%; in assay [3], -17%. The change in vivo at 50 mg/kg is -27% in assay [1], 32% in assay [2] and -26% in assay [3]. Further, the change in vivo at 100 mg/kg in assay [1] is -48%; in assay [2] it was 36%; in assay [3], -50%.
Take `O=C(O)CNS(=O)(=O)c1ccc(Cl)cc1C(=O)c1ccccc1Cl` [Compound 1575]: in assay [1], the change in vivo at 25 mg/kg is -15%, the change in vivo at 50 mg/kg was -18% and the change in vivo at 100 mg/kg is -35%. In assay [2], the change in vivo at 25 mg/kg turned out to be 15%, the change in vivo at 50 mg/kg worked out at 19% and the change in vivo at 100 mg/kg came to 35%. In assay [3], the change in vivo at 25 mg/kg is -18%, the change in vivo at 50 mg/kg is -21% and the change in vivo at 100 mg/kg was -37%.
Turning to `O=C(O)CCCCCCCCCCNS(=O)(=O)c1ccccc1C(=O)c1ccccc1` [Compound 1682], the inhibition at 40 µM in assay [4] (setting [5]) was found to be 30%; in assay [4] (setting [6]) it was 30%; in assay [4] (setting [7]), 40%. The change in vivo at 25 mg/kg is -33% in assay [1], 12% in assay [2] and -35% in assay [3]. The change in vivo at 50 mg/kg was -42% in assay [1], 15% in assay [2] and -35% in assay [3]. Moreover, the change in vivo at 100 mg/kg in assay [1] is -45%; in assay [2], 20%; in assay [3], -40%.
In the case of `O=C(O)CCCCCCCCCCCNS(=O)(=O)c1cccc(C(=O)c2ccccc2)c1` [Compound 1685], the inhibition at 40 µM in assay [4] (setting [5]) was 70%; in assay [4] (setting [6]), 50%; in assay [4] (setting [7]) it was 70%.
On to `O=C(O)CCCCCCCCCCCNS(=O)(=O)c1cccc(C(=O)c2cc(S(=O)(=O)NCCCCCCCCCCCC(=O)O)ccc2Cl)c1` [Compound 1689], for which the inhibition at 40 µM was -30% in assay [4] (setting [5]), -30% in assay [4] (setting [6]) and 20% in assay [4] (setting [7]).
With `O=C(O)CCCCCCCCCCNS(=O)(=O)c1ccc(Cl)c(C(=O)c2ccccc2)c1` [Compound 1737, 11-(3-benzoyl-4-chlorobenzenesulphonamido)undecanoic acid], the inhibition at 40 µM in assay [4] (setting [8]) amounted to 95%.
For the compound `O=C(O)CCCNS(=O)(=O)c1ccc(C(=O)c2cccs2)cc1` [Compound 1738, 4-[4-(2-thenoyl)benzenesulphonamido]butyric acid], the inhibition at 40 µM in assay [4] (setting [8]) stood at 20%.
`O=C(O)CCCCCCCNS(=O)(=O)c1ccc(Cl)cc1C(=O)c1ccccc1Cl` [Compound 1743]: in assay [4] (setting [8]), the inhibition at 40 µM is 20%.
